Here are results for 12 compounds from PubChem BioAssay AID1259407 (Chemical Carcinogenesis Research Information System (CCRIS), 2018).

The test system of this data set is CCRIS mutagenicity, Ames/micronucleus/aberration tests. Kind of data set: CCRIS mutagenicity studies.
The mark [1] stands for this setting: Test System: AMES SALMONELLA TYPHIMURIUM, Strain/Indicator: TA98, Metabolic Activation: NONE, Method: STANDARD PLATE.
Setting [2] is: Test System: AMES SALMONELLA TYPHIMURIUM, Strain/Indicator: TA98, Metabolic Activation: RAT, LIVER, S-9, AROCLOR 1254, Method: STANDARD PLATE.
The mark [3] stands for this setting: Test System: AMES SALMONELLA TYPHIMURIUM, Strain/Indicator: TA100, Metabolic Activation: NONE, Method: STANDARD PLATE.
The mark [4] stands for this setting: Test System: AMES SALMONELLA TYPHIMURIUM, Strain/Indicator: TA98, Metabolic Activation: NONE, Method: PREINCUBATION
[5] abbreviates: Test System: AMES SALMONELLA TYPHIMURIUM, Strain/Indicator: TA100, Metabolic Activation: NONE, Method: PREINCUBATION

The source made the active and inactive calls. The rule behind the calls is not given here.

For the compound `CN(C)CCCN1c2ccccc2CCc2ccccc21`, the mutagenic call is “inactive; negative” under setting [1]; “inactive; negative” under setting [2]; “inactive; negative” under setting [3]; “inactive; negative” (Test System: AMES SALMONELLA TYPHIMURIUM, Strain/Indicator: TA100, Metabolic Activation: RAT, LIVER, S-9, AROCLOR 1254, Method: STANDARD PLATE); “inactive; negative” (Test System: AMES SALMONELLA TYPHIMURIUM, Strain/Indicator: TA1535, Metabolic Activation: NONE, Method: STANDARD PLATE); “inactive; negative” (Test System: AMES SALMONELLA TYPHIMURIUM, Strain/Indicator: TA1535, Metabolic Activation: RAT, LIVER, S-9, AROCLOR 1254, Method: STANDARD PLATE). Besides, the mutagenic call reads like this: (Test System: AMES SALMONELLA TYPHIMURIUM, Strain/Indicator: TA1537, Metabolic Activation: NONE, Method: STANDARD PLATE) “inactive; negative”; (Test System: AMES SALMONELLA TYPHIMURIUM, Strain/Indicator: TA1537, Metabolic Activation: RAT, LIVER, S-9, AROCLOR 1254, Method: STANDARD PLATE) “inactive; negative”.
`O=[N+]([O-])c1ccc2c3c(c4cccc5ccc1c2c54)CCCC3`: the mutagenic call is, setting by setting: under setting [1], “active; positive”; under setting [2], “active; positive”.
For `CC1(C)C[C@H]2C=C(C=O)[C@]34C[C@]3(C(=O)O[C@@H]4O)[C@H]2C1`, the mutagenic call by setting is: (Test System: AMES SALMONELLA TYPHIMURIUM, Strain/Indicator: TA98, Metabolic Activation: NONE, Method: SPOT TEST) “active; positive”; under setting [1], “active; positive”; (Test System: AMES SALMONELLA TYPHIMURIUM, Strain/Indicator: TA100, Metabolic Activation: NONE, Method: SPOT TEST) “inactive; negative”; under setting [3], “active; positive”; (Test System: AMES SALMONELLA TYPHIMURIUM, Strain/Indicator: TA1535, Metabolic Activation: NONE, Method: SPOT TEST) “inactive; negative”; (Test System: AMES SALMONELLA TYPHIMURIUM, Strain/Indicator: TA1538, Metabolic Activation: NONE, Method: SPOT TEST) “inactive; negative”. The mutagenic call was “active; positive” (Test System: AMES SALMONELLA TYPHIMURIUM, Strain/Indicator: TA2637, Metabolic Activation: NONE, Method: STANDARD PLATE) and “inactive; negative” (Test System: CHINESE HAMSTER V-79, Strain/Indicator: V-79/6-THIOGUANINE (HGPRT), Metabolic Activation: NONE).
For `S=C=NCCc1ccccc1`, the mutagenic call by setting is: under setting [1], “inactive; negative”; (Test System: AMES SALMONELLA TYPHIMURIUM, Strain/Indicator: TA98, Metabolic Activation: RAT LIVER S-9, AROCLOR 1254, Method: STANDARD PLATE) “active; positive”; under setting [3], “inactive; negative”; (Test System: AMES SALMONELLA TYPHIMURIUM, Strain/Indicator: TA100, Metabolic Activation: RAT LIVER S-9, AROCLOR 1254, Method: STANDARD PLATE) “inactive; negative”.
With `O=C(Cl)C(Cl)Cl`, the mutagenic call (Test System: AMES SALMONELLA TYPHIMURIUM, Strain/Indicator: TA98, Metabolic Activation: HAMSTER, LIVER, S-9, AROCLOR 1254 (30%), Method: PREINCUBATION) is “inactive; negative”; the mutagenic call under setting [4] was “inactive; negative”; the mutagenic call (Test System: AMES SALMONELLA TYPHIMURIUM, Strain/Indicator: TA98, Metabolic Activation: RAT, LIVER, S-9, AROCLOR 1254 (30%), Method: PREINCUBATION) is “inactive; negative”; the mutagenic call (Test System: AMES SALMONELLA TYPHIMURIUM, Strain/Indicator: TA100, Metabolic Activation: HAMSTER, LIVER, S-9, AROCLOR 1254 (30%), Method: PREINCUBATION) was “inactive; negative”; the mutagenic call (Test System: AMES SALMONELLA TYPHIMURIUM, Strain/Indicator: TA100, Metabolic Activation: NONE, Method: BAG VAPORIZATION) is “active; positive”; the mutagenic call under setting [5] was “active; positive”. In addition, the mutagenic call (Test System: AMES SALMONELLA TYPHIMURIUM, Strain/Indicator: TA100, Metabolic Activation: RAT, LIVER, S-9, AROCLOR 1254 (30%), Method: PREINCUBATION) is “inactive; negative” and the mutagenic call (Test System: AMES SALMONELLA TYPHIMURIUM, Strain/Indicator: TA100, Metabolic Activation: RAT, LIVER, S-9, AROCLOR 1254, Method: BAG VAPORIZATION) was “inactive; negative”.
With `O=[N+]([O-])c1cc(Cl)cc(Cl)c1O`, the mutagenic call was “inactive; negative” under setting [4]; “inactive; negative” under setting [1]; “inactive; negative” under setting [5]; “inactive; negative” under setting [3]; “inactive; negative” (Test System: CHINESE HAMSTER V-79, Strain/Indicator: V-79/6-THIOGUANINE, Metabolic Activation: NONE).
For `COc1cc([N+](=O)[O-])ccc1NC(C)=O`, the mutagenic call is “active; positive” under setting [1] and “inactive; negative” under setting [2].
Regarding `O[C@@H]1[C@H]2O[C@H]2c2c(ccc3cc4ccc5ccccc5c4nc23)[C@H]1O`, the mutagenic call under setting [4] was “active; positive”; the mutagenic call under setting [5] was “active; positive”; the mutagenic call (Test System: CHINESE HAMSTER V-79, Strain/Indicator: V-79/8-AZAGUANINE, Metabolic Activation: NONE, Method: STANDARD PLATE) is “active; positive”.
For `Cc1cc(S(=O)(=O)O)c([N+](=O)[O-])cc1[N+](=O)[O-]`, the mutagenic call is “inactive; negative” (End Point: In vitro chromosomal aberrations, Test System: V79 Chinese hamster fibroblasts, Metabolic Activation: None); “inactive; negative” (Test System: Ames Salmonella typhimurium, Strain/Indicator: TA98, Metabolic Activation: None, Method: Standard plate); “inactive; negative” (Test System: Ames Salmonella typhimurium, Strain/Indicator: TA98, Metabolic Activation: Rat, Liver, S-9, Method: Standard plate); “inactive; negative” (Test System: Ames Salmonella typhimurium, Strain/Indicator: TA100, Metabolic Activation: None, Method: Standard plate); “inactive; negative” (Test System: Ames Salmonella typhimurium, Strain/Indicator: TA100, Metabolic Activation: Rat, Liver, S-9, Method: Standard plate).
As for `O=Nn1cc(CC(O)C(=O)O)c2ccccc21` (stereo unspecified), the mutagenic call under setting [1] was “active; positive”.
For `c1ccc2c(c1)ccc1c3ccccc3sc21`, where the note is “Test System: AMES SALMONELLA TYPHIMURIUM, Strain/Indicator: TA100, Metabolic Activation: RAT, LIVER, S-9, AROCLOR 1254, Method: PREINCUBATION”, the mutagenic call is “active; positive”.
Consider `CO[C@@H]1[C@H](O)C[C@@H](O[C@@H]2C[C@H](Oc3cc4cc5c(c(O)c4c(O)c3C)C(=O)[C@@H](O[C@H]3C[C@@H](O[C@H]4C[C@@H](O[C@H]6C[C@](C)(O)[C@@H](OC(C)=O)[C@H](C)O6)[C@H](O)[C@@H](C)O4)[C@H](O)[C@@H](C)O3)[C@H]([C@H](OC)C(=O)[C@@H](O)[C@@H](C)O)C5)O[C@H](C)[C@@H]2OC(C)=O)O[C@@H]1C`, for which the mutagenic call under setting [1] was “inactive; negative”; the mutagenic call under setting [3] is “inactive; negative”; the mutagenic call (Test System: CHINESE HAMSTER OVARY, Strain/Indicator: CHO (HGPRT)/6-THIOGUANINE, Metabolic Activation: NONE, Method: PREINCUBATION) is “active; positive”; the mutagenic call (Test System: E. COLI, Strain/Indicator: WP2 (HCR), Metabolic Activation: NONE, Method: STANDARD PLATE) is “inactive; negative”.
